Assay results: PubChem BioAssay (NCI)
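Cultured in 96-well plates, cells were exposed to test compound for 48 hours across five concentrations. GI50 = concentration required for 50% inhibition of growth. TGI: total growth inhibition.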

How the values were obtained:
Assay in all cases: NCI tumour cell line growth inhibition, 48 h
A549 NSCLC = tested on: A549 NSCLC
BT-549 breast = tested on: BT-549 breast
EKVX NSCLC = tested on: EKVX NSCLC
HOP-62 NSCLC = tested on: HOP-62 NSCLC
KM12 colon = tested on: KM12 colon
LOX IMVI melanoma = tested on: LOX IMVI melanoma
NCI-H226 lung = tested on: NCI-H226 lung
TK-10 renal = tested on: TK-10 renal
UACC-257 melanoma = tested on: UACC-257 melanoma
UO-31 renal = tested on: UO-31 renal

SMILES	GI50 (A549 NSCLC)	TGI (A549 NSCLC)	GI50 (BT-549 breast)	TGI (BT-549 breast)	GI50 (EKVX NSCLC)	TGI (EKVX NSCLC)	GI50 (HOP-62 NSCLC)	TGI (HOP-62 NSCLC)	GI50 (KM12 colon)	TGI (KM12 colon)	GI50 (LOX IMVI melanoma)	TGI (LOX IMVI melanoma)	GI50 (NCI-H226 lung)	GI50 (TK-10 renal)	TGI (TK-10 renal)	GI50 (UACC-257 melanoma)	TGI (UACC-257 melanoma)	GI50 (UO-31 renal)	TGI (UO-31 renal)	TGI (NCI-H226 lung)
COC(=O)c1cc(-c2ccccc2)[nH]c1N/N=C/c1c(Cl)cccc1Cl	0.501 µM	> 44.1 µM	0.466 µM	6.69 µM	0.454 µM	> 37.3 µM	0.471 µM	> 33.6 µM	0.274 µM	1.57 µM	0.602 µM	17.7 µM	0.369 µM	0.392 µM	2.4 µM	3.58 µM	41.3 µM	0.609 µM	> 56.3 µM	–
Cc1ccc(/C=C/c2c(C(=O)/C=C/c3ccccc3)c(C)nc3ccccc23)cc1	2.04 µM	5.6 µM	1.75 µM	4.36 µM	1.85 µM	3.58 µM	1.74 µM	3.49 µM	1.72 µM	3.36 µM	1.64 µM	3 µM	1.69 µM	–	–	1.86 µM	4.02 µM	1.26 µM	2.52 µM	3.46 µM
C=C(C)[C@@H]1CCC=C2CC[C@]3(C)[C@H](CC[C@@H]4[C@@]5(C)CCCNC(C)(C)[C@@H]5CC[C@]43C)[C@H]21	2.04 µM	3.86 µM	4.5 µM	20.7 µM	2.17 µM	5.6 µM	–	–	–	–	–	–	2.8 µM	2.02 µM	4.98 µM	3.34 µM	9.32 µM	1.53 µM	2.99 µM	9.14 µM
O=c1cccccc1[O-].O=c1cccccc1[O-].O=c1cccccc1[O-].[Eu+3]	–	> 100 µM	–	–	–	> 100 µM	24.9 µM	90.2 µM	–	> 100 µM	–	> 100 µM	–	–	> 100 µM	–	99.6 µM	–	> 100 µM	> 100 µM
COc1ccc2c(c1)[n+](=O)c(C(=O)c1cccs1)c(C(F)(F)F)n2[O-]	7.99 µM	> 50 µM	1.3 µM	6.57 µM	1.48 µM	8.21 µM	12.1 µM	> 50 µM	3.96 µM	25.4 µM	2.09 µM	12.7 µM	9.58 µM	1.07 µM	8.77 µM	8.66 µM	42 µM	1.83 µM	17.6 µM	> 50 µM
CCCCC(SC(=S)N1CCCC1)C(=O)Nc1nc(CC(=O)OCC)cs1 (centres undefined)	31.7 µM	> 100 µM	59.7 µM	> 100 µM	56.4 µM	> 100 µM	> 100 µM	> 100 µM	45.3 µM	> 100 µM	36.1 µM	> 100 µM	71 µM	> 100 µM	> 100 µM	47.9 µM	> 100 µM	36.9 µM	> 100 µM	> 100 µM
N#Cc1nc(-c2ccc(F)cc2)oc1S(=O)(=O)N1CCCCC1	6.9 µM	27.1 µM	2.24 µM	5.74 µM	1.86 µM	3.96 µM	5.59 µM	25.5 µM	5.23 µM	19.3 µM	1.19 µM	2.69 µM	19.1 µM	1.78 µM	3.27 µM	1.98 µM	4.58 µM	1.58 µM	2.93 µM	42.1 µM
O=[N+]([O-])c1cc[n+]([O-])c2ccccc12	0.149 µM	0.584 µM	0.2 µM	0.728 µM	1.22 µM	3.98 µM	0.221 µM	1.13 µM	0.0832 µM	0.332 µM	0.156 µM	0.418 µM	0.311 µM	0.187 µM	0.707 µM	0.229 µM	0.77 µM	0.191 µM	0.604 µM	1.38 µM
CCC[CH2][Sn]([CH2]CCC)([O]C(=O)c1cc(OC)c(OC)cc1OC)[O][Sn]([CH2]CCC)([CH2]CCC)[O]C(=O)c1cc(OC)c(OC)cc1OC	1.67 µM	3.5 µM	–	–	1.7 µM	3.09 µM	2.11 µM	3.67 µM	0.897 µM	2.3 µM	0.257 µM	0.782 µM	0.507 µM	1.53 µM	2.86 µM	0.276 µM	0.883 µM	1.33 µM	2.6 µM	1.08 µM
C[N+]1=c2c3cccc4cccc(c(=O)n2CC1)c43	–	53 µM	–	–	–	87.5 µM	–	53.1 µM	–	42.3 µM	–	17.6 µM	–	–	38.8 µM	–	30 µM	–	32.4 µM	28.7 µM
[2H]C([2H])([2H])NC(=O)c1nnc(NC(=O)C2CC2)cc1Nc1cccc(-c2ncn(C)n2)c1OC	50.1 µM	> 100 µM	23.2 µM	> 100 µM	81.4 µM	> 100 µM	15.5 µM	> 100 µM	32.1 µM	> 100 µM	14.5 µM	> 100 µM	> 100 µM	8.28 µM	> 100 µM	> 100 µM	> 100 µM	5.93 µM	60.4 µM	> 100 µM
O=C(/C=C(\O)C(=O)O)/C=C(\O)c1ccccc1	> 1 µM	> 100 µM	–	–	> 1 µM	> 100 µM	> 1 µM	> 76.2 µM	–	> 100 µM	> 1 µM	> 100 µM	> 1 µM	> 1 µM	> 100 µM	> 1 µM	> 100 µM	> 1 µM	> 1 µM	> 100 µM
CC(C)/C=C1\CCC(CN2CCOCC2)C1=O (centres undefined)	–	72.6 µM	–	–	–	36.8 µM	–	> 100 µM	–	23.6 µM	–	53.6 µM	–	–	29.7 µM	–	20.1 µM	–	38.6 µM	94.8 µM
C/C(CC(=O)Nc1cccc(Cl)c1C)=N\NC(N)=S	–	> 100 µM	–	–	–	> 100 µM	–	> 100 µM	–	> 100 µM	–	> 100 µM	–	–	> 100 µM	–	> 100 µM	–	> 100 µM	> 100 µM
Cc1ccc(S(=O)(=O)Oc2ccc3c4c(c(=O)oc3c2)CCCCCC4)cc1	> 100 µM	> 100 µM	> 100 µM	> 100 µM	–	–	> 100 µM	> 100 µM	4.78 µM	> 100 µM	> 100 µM	> 100 µM	8.31 µM	> 100 µM	> 100 µM	8.7 µM	> 100 µM	27.3 µM	> 100 µM	> 100 µM
C#C[C@]1(O)CC[C@H]2[C@@H]3CC=C4c5sc(Nc6cc(F)ccc6F)nc5CC[C@]4(C)[C@H]3CC[C@@]21C	2.51 µM	7.86 µM	0.661 µM	2.43 µM	1.53 µM	3.06 µM	1.77 µM	5.7 µM	1.97 µM	4.34 µM	1.49 µM	2.87 µM	–	2.58 µM	5.37 µM	1.83 µM	4.31 µM	1.14 µM	2.35 µM	–
COC(C)(C)[C@@H](O)[C@H](O)C[C@H](C)C1=C2CC[C@@H]3[C@@]4(C)CC[C@@H](OC(C)=O)C(C)(C)[C@@H]4C[C@@H](OC4OC(COC(C)=O)C(O)C(O)C4O)[C@@]3(C)[C@]2(C)CC1 (some centres undefined)	7.77 µM	20.3 µM	15.1 µM	28.7 µM	13 µM	26.2 µM	14.3 µM	27.4 µM	3.55 µM	18.9 µM	6.36 µM	19.6 µM	13.3 µM	–	–	12.6 µM	25.4 µM	13.6 µM	26.9 µM	26.7 µM
COc1ccc2c(c1)/C(=C\c1ccncc1)C(=O)N2	17.3 µM	46.4 µM	12.5 µM	32.4 µM	13.9 µM	33 µM	21.8 µM	41 µM	4.83 µM	24 µM	2.26 µM	5.82 µM	–	15.1 µM	30.5 µM	4.62 µM	18.3 µM	6.73 µM	19.3 µM	–
COc1cc2c(cc1OC)-c1ncc3c(OC)ccc(OC)c3c1C2	16.1 µM	> 100 µM	11.1 µM	32.5 µM	16.9 µM	54.9 µM	21.4 µM	61.3 µM	16.5 µM	83.7 µM	16.7 µM	> 100 µM	–	16.8 µM	43.6 µM	19.7 µM	55.4 µM	18.3 µM	60 µM	–
COc1ccc([C@H](CC(=O)O)N2CCN(CCCc3ccc4c(n3)NCCC4)C2=O)cn1	3.07 µM	> 30.3 µM	0.153 µM	0.296 µM	–	–	0.414 µM	> 100 µM	> 100 µM	> 100 µM	0.715 µM	4.23 µM	0.417 µM	0.0167 µM	0.0795 µM	–	> 100 µM	> 36.7 µM	> 100 µM	–
CCCCNNC(=O)c1ccc(Br)cc1	5.34 µM	> 50 µM	17 µM	> 50 µM	–	–	2.98 µM	> 34.2 µM	7.26 µM	> 50 µM	3.29 µM	12.2 µM	9.86 µM	1.31 µM	12.2 µM	0.639 µM	7.34 µM	2.36 µM	> 35.1 µM	> 50 µM
CCC(=O)N1C/C(=C/c2ccc(Cl)cc2)C(=O)/C(=C/c2ccc(Cl)cc2)C1	0.868 µM	4.14 µM	0.462 µM	1.52 µM	–	–	0.499 µM	1.53 µM	0.25 µM	0.665 µM	0.161 µM	0.354 µM	1.15 µM	1.76 µM	3.52 µM	1.64 µM	3.24 µM	1.15 µM	2.5 µM	3.5 µM
C/C(CC(=O)NCCc1ccccc1)=N\NS(=O)(=O)c1ccc(C)cc1	–	> 100 µM	–	–	–	> 100 µM	–	> 100 µM	–	> 100 µM	–	> 100 µM	–	–	> 100 µM	–	> 100 µM	–	> 100 µM	> 100 µM
CCO/C=C1\N=C(c2ccc(Cl)c(Cl)c2)OC1=O	–	> 100 µM	–	–	–	> 100 µM	–	> 100 µM	–	> 100 µM	–	> 100 µM	–	–	> 100 µM	–	> 100 µM	–	> 100 µM	> 100 µM
COc1c(C(C)=O)c(OCCCCOc2c(C(C)=O)c(OC)c3ccoc3c2OC)c(OC)c2occc12	3.35 µM	> 100 µM	1.61 µM	5.22 µM	2.48 µM	> 100 µM	> 100 µM	> 100 µM	3.11 µM	> 100 µM	4.81 µM	> 100 µM	–	> 23.4 µM	> 100 µM	–	–	2.34 µM	> 100 µM	> 100 µM
ClC(Cl)=C(Cl)C1(Cl)CC1COCc1ccccc1 (centres undefined)	–	> 100 µM	–	–	–	> 100 µM	–	79.3 µM	–	> 100 µM	–	54.8 µM	–	–	> 100 µM	–	97.2 µM	–	74.1 µM	95.6 µM
COc1ccccc1/C=C1\COc2ccc(-c3ccccc3)cc2C1=O	2.61 µM	8.9 µM	1.55 µM	4.89 µM	5.59 µM	> 100 µM	7.6 µM	> 100 µM	1.93 µM	5.55 µM	2.97 µM	10.7 µM	4.02 µM	2.64 µM	7.91 µM	–	–	8.93 µM	37.3 µM	17.7 µM
COC(=O)CCC(NC(=S)N/N=C(\C)c1ccc[nH]1)C(=O)OC (centres undefined)	–	> 100 µM	–	–	–	> 100 µM	–	> 100 µM	–	> 100 µM	–	> 100 µM	–	–	> 100 µM	–	> 100 µM	–	> 100 µM	> 100 µM
OC1(c2ccccc2)C2CC=CC2C1(c1ccccc1)c1ccccc1 (centres undefined)	–	> 100 µM	–	> 100 µM	–	76.4 µM	–	> 100 µM	–	> 100 µM	–	37.9 µM	–	–	> 100 µM	–	81.4 µM	–	> 100 µM	–
CN1C(=O)c2ccc3ccccc3c2C1=O	–	> 100 µM	–	> 100 µM	–	87.2 µM	–	> 100 µM	–	> 100 µM	–	–	–	–	> 100 µM	–	> 100 µM	–	> 100 µM	> 100 µM
